Assay results published in US12403172B2, “Composition for preventing, alleviating or treating metabolic syndrome accompanied by obesity and/or diabetes, containing, as active ingredient, complex (IB complex) of Indian gooseberry extract and sprout barley extract” (HLSCIENCE CO., LTD, priority 2019, dated 2025).
Marks after values point to notes of the source that are not given here.

Test system: obesity-induced mice from high fat diet
Test: Body weight change of obesity-induced mice
Format: in vivo, C57BL/6J mice
Conditions: 60% high fat diet + Metformin 250 mg/kg b.w.
Description: The effect on the body weight change of obesity-induced mice from high fat diet of the complex of the Indian gooseberry extract and barley sprout extract of the present invention was confirmed. As an experimental animal, 4-week male C57BL/6J mice around 20 g were supplied from Saeron Bio Inc. (Uiwang-si, Korea). They were used for the experiment, after passing through the adaptation period for 1 week under the condition that the light and dark was 12 hours (light/dark cycle) and the temperature was 23±2° C. and the relative humidity was 50±5%. During the adaptation period, AIN-93G diet and drinking water were allowed to be consumed freely, and the body weight was measured to separate 8 mice per each group by the random method. At the end of the adaptation period, the sample intake was progressed as free diet intake for 15 weeks, and the dietary intake and body weight were measured every week, and after the end of the experiment, the weight gain was divided by the dietary intake (total food consumption)) for the same period to calculate the food efficiency ratio (FER). The classification of the experimental group and the composition of the experimental diet were shown in Table 5, and the equation of the diet efficiency was shown in the following equation 3. FER=weight gain (g)/total food consumption (g)×100 Equation 3

**Q.** Which results are given for `CN(C)C(=N)N=C(N)N` [Met, Metformin]?
**A.** Initial body weight: 19.26 ± 0.66 g; Final body weight (g) (15 weeks): 39.46 ± 2.16^d g; Food intake (g/day/mouse) (15 weeks): 2.66 ± 0.18^b g/day/mouse; Weight gain (g) (15 weeks): 20.20 ± 1.89^c g; FER (food efficiency ratio) (weight gain/total food consumption x100): 7.25 ± 0.68^c
